Laboratory results from US20040024024A1, “Aromatic sulfone hydroxamates and their use as protease inhibitors” (priority 2001, published 2004).

Assays:
Human recombinant MMP-2 = target: T1, Human recombinant MMP-2 (Homo sapiens, UniProt P08253); assay: In vitro MMP inhibition, Ki determination (fluorogenic substrate II); assay type: biochemical
T1 construct: made in house; host or cells: MMP-2-transfected p2AHT2 cells
T1 sequence (P08253 110-660): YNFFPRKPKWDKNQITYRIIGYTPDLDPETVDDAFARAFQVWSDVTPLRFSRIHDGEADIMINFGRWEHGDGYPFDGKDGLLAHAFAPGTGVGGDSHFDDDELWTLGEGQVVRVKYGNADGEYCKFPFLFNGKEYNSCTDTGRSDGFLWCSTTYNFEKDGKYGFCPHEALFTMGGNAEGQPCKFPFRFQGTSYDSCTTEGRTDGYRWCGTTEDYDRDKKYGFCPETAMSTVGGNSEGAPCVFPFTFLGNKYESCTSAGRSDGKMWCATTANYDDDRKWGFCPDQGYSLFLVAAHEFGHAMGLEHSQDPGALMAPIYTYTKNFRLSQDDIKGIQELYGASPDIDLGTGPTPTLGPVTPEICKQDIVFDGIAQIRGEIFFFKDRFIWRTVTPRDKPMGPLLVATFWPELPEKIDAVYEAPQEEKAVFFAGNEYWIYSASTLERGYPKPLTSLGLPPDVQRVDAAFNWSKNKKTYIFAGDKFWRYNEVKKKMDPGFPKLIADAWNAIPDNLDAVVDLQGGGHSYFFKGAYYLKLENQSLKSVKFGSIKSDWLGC

Human recombinant MMP-13 = target: T2, Human recombinant MMP-13 (Homo sapiens, UniProt P45452); assay: as above; assay type: biochemical
T2 construct: made in house; host or cells: baculovirus / insect cells
Method in brief: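 Baculovirus-expressed proenzyme, APMA-activated; 4 μM fluorogenic MCA/Dpa peptide substrate (II), at or below Km, in Tris buffer pH 7.5 with CaCl2, 1 hr at room temperature. Fluorescence at 330/420 nm; Ki from non-linear regression with Morrison's equation, not corrected for substrate.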

[1] = substrate (II) 4 μM, 1 hr room temperature, apparent Ki, values in parenthesis

Row | Compound | Ki (Human recombinant MMP-2; value in parentheses) | Ki (Human recombinant MMP-13; value in parentheses) | Ki (Human recombinant MMP-2; value in parenthesis) | Ki (Human recombinant MMP-13; value in parenthesis) | also measured
1 | O=C(NO)C1(S(=O)(=O)c2ccc(OCCCc3cccc(-c4ccc(F)c(F)c4)c3)cc2)CCOCC1 [Example 170] |  |  | 1410 nM | 6.79 nM | 
2 | O=C(NO)C1(S(=O)(=O)c2ccc(OCCCc3nc(-c4ccc(OC(F)(F)F)cc4)no3)cc2)CCN(Cc2ccccc2)CC1 [Example 93] |  |  | 676 nM | 9.29 nM | 
3 | O=C(NO)C1(S(=O)(=O)c2ccc(OCCc3cccc(-c4ccc(OC(F)(F)F)cc4)c3)cc2)CCOCC1 [Example 112] |  |  | 3970 nM | 51.2 nM | 
4 | COc1ccc(-c2cccc(CCOc3ccc(S(=O)(=O)C4(C(=O)NO)CCOCC4)cc3)c2)cc1C [Example 119] |  |  | 1680 nM | 31.4 nM | 
5 | COCCN1CCC(C(=O)NO)(S(=O)(=O)c2ccc(OCCCc3cccc(-c4ccc(F)cc4F)c3)cc2)CC1 [Example 513] | 880 nM | 0.98 nM |  |  | 
6 | O=C(NO)C1(S(=O)(=O)c2ccc(OCCc3cccc(-c4ccccc4Cl)c3)cc2)CCOCC1 [Example 114] |  |  | 1500 nM | 4.2 nM | 
7 | COCCN1CCC(C(=O)NO)(S(=O)(=O)c2ccc(OCCCc3nc(-c4cccc5ccccc45)no3)cc2)CC1 [Example 199] |  |  | 228 nM | 3.09 nM | 
8 | O=C(NO)C1(S(=O)(=O)c2ccc(OCCCc3cccc(-c4ccc(Cl)cc4Cl)c3)cc2)CCOCC1 [Example 171] |  |  | 3190 nM | 12.5 nM | 
9 | O=C(NO)C1(S(=O)(=O)c2ccc(OCCc3cccc(-c4ccc(Cl)cc4Cl)c3)cc2)CCOCC1 [Example 124] |  |  | 5730 nM | 20.1 nM | 
10 | COCCN1CCC(C(=O)NO)(S(=O)(=O)c2ccc(OCCCc3cccc(-c4cccc(F)c4)c3)cc2)CC1 [Example 511] | 526 nM | 1.36 nM |  |  | 
11 | NC(=O)c1cccc(-c2noc(CCCOc3ccc(S(=O)(=O)C4(C(=O)NO)CCN(C5CC5)CC4)cc3)n2)c1 [Example 129] |  |  | 50 nM | 0.27 nM | 
12 | Cc1cc(-c2cccc(CCOc3ccc(S(=O)(=O)C4(C(=O)NO)CCOCC4)cc3)c2)ccc1Cl [Example 118] |  |  | 2650 nM | 18.8 nM | 
13 | COCCN1CCC(C(=O)NO)(S(=O)(=O)c2ccc(OCCc3cccc(-c4ccccc4)c3)cc2)CC1 [Example 45] |  |  |  |  | Ki (Human recombinant MMP-2; [1]): 225 nM; Ki (Human recombinant MMP-13; [1]): 0.62 nM
14 | COCCN1CCC(C(=O)NO)(S(=O)(=O)c2ccc(OCCCc3nc(-c4ccc(Br)cc4C)no3)cc2)CC1 [Example 135] |  |  | 58.5 nM | 0.761 nM | 
15 | CCCCc1ccc(-c2noc(CCCOc3ccc(S(=O)(=O)C4(C(=O)NO)CCOCC4)cc3)n2)c(C)c1 [Example 183] |  |  | 643 nM | 15.1 nM | 
16 | Cc1cc(-c2cccc(CCCOc3ccc(S(=O)(=O)C4(C(=O)NO)CCOCC4)cc3)c2)ccc1F [Example 168] |  |  | 5500 nM | 27.3 nM | 

The next lines start with results.

Row | Ki (Human recombinant MMP-2; value in parentheses) | Ki (Human recombinant MMP-13; value in parentheses) | Ki (Human recombinant MMP-2; value in parenthesis) | Ki (Human recombinant MMP-13; value in parenthesis) | Compound | also measured
17 | 83.5 nM | 2.57 nM |  |  | CCC(=O)c1cccc(CCCOc2ccc(S(=O)(=O)C3(C(=O)NO)CCOCC3)cc2)c1 [Example 528] | 
18 | 302 nM | 0.24 nM |  |  | O=C(NCCSc1ccc(S(=O)(=O)C2(C(=O)NO)CCN(C3CC3)CC2)cc1)c1nc2ccccc2s1 [Example 541] | 
19 | 234 nM | 0.86 nM |  |  | O=C(NCCSc1ccc(S(=O)(=O)C2(C(=O)NO)CCN(C3CC3)CC2)cc1)c1cc2ccccc2o1 [Example 542] | 
20 | 739 nM | 1.02 nM |  |  | O=C(NO)C1(S(=O)(=O)c2ccc(OCCc3ccc(-c4cccc(O)c4)cc3)cc2)CCOCC1 [Example 532] | 
21 | 337 nM | 2.72 nM |  |  | O=C(NO)C1(S(=O)(=O)c2ccc(OCCc3ccc(-c4ccc(O)cc4)cc3)cc2)CCOCC1 [Example 531] | 
22 | 699 nM | 7.33 nM |  |  | O=C(NO)C1(S(=O)(=O)c2ccc(OCCCc3cccc(-c4cccc(O)c4)c3)cc2)CCOCC1 [Example 530] | 
23 | 310 nM | 1.11 nM |  |  | COCCN1CCC(C(=O)NO)(S(=O)(=O)c2ccc(OCCc3cccc(-c4cccc(F)c4)c3)cc2)CC1 [Example 545] | 
24 | 5.07 nM | 0.62 nM |  |  | CCCCc1ccc(COc2ccc(S(=O)(=O)C3(C(=O)NO)CCOCC3)cc2)cn1 [Example 551] | 
25 | 24.6 nM | 0.184 nM |  |  | COCCN1CCC(C(=O)NO)(S(=O)(=O)c2ccc(OCCc3cccc(-c4ccncc4)c3)cc2)CC1 [Example 538] | 
26 | 3.38 nM | 0.261 nM |  |  | O=C(NO)C1(S(=O)(=O)c2ccc(OCCCOCc3ccncc3)cc2)CCOCC1 [Example 555] | 
27 | 599 nM | 0.27 nM |  |  | O=C(NCCSc1ccc(S(=O)(=O)C2(C(=O)NO)CCOCC2)cc1)c1nc2ccccc2s1 [Example 598] | 
28 | 11.7 nM | 1.51 nM |  |  | O=C(NO)C1(S(=O)(=O)c2ccc(OCCCOc3cncnc3)cc2)CCOCC1 [Example 559] | 
29 | 25.4 nM | 0.493 nM |  |  | CCCc1ccc(CCCOc2ccc(S(=O)(=O)C3(C(=O)NO)CCOCC3)cc2)cn1 [Example 534] | 
30 | 727 nM | 2.28 nM |  |  | COCCN1CCC(C(=O)NO)(S(=O)(=O)c2ccc(OCCc3cccc(-c4ccc(Cl)cc4)c3)cc2)CC1 [Example 547] | 
